Source: article PMC11478334, “Quaternized Curcumin Derivative—Synthesis, Physicochemical Characteristics, and Photocytotoxicity, Including Antibacterial Activity after Irradiation with Blue Light” (Molecules, 2024)

How the values were obtained:
[1] = tested on: Streptococcus pyogenes ATCC 19615; test: In vitro photodynamic inactivation of planktonic cells, 470 nm LED; assay type: cell-based; settings: for irradiation time to complete eradication: 470 nm LED
Text: The second experiment was designed to determine the time and concentration required to achieve the biological effect observed in the first experiment and to extend the study to other strains (Figure 12). Apart from S. aureus and E. coli, the Gram-positive Streptococcus pyogenes ATCC 19615, which is the etiologic agent of tonsillitis, and the Gram-negative Pseudomonas aeruginosa NCTC 6749, which is a major threat to hospitalized and immunocompromised patients due to its high antibiotic resistance, were used. The observed effect was strictly concentration-dependent (Table 6). According to the results, Gram-positive bacteria appear to be the most susceptible to the applied photocytotoxicity study. […] For S. pyogenes, the results were even more pronounced, as the complete eradication under the influence of compound 3 at a concentration of 10 µM occurred after only 5 min of irradiation, while at a concentration of 1 µM, complete eradication occurred after 15 min of irradiation. Interesting results were also obtained for Gram-negative bacteria. […] A high level of eradication of P. aeruginosa in the presence of compound 3 (10 µM) was observed after only 5 min of irradiation (log reduction: 4.29). […] Reductions in microbial survival were still observed with a decrease in compound concentration, but complete eradication was not achieved within the irradiation time.
The microorganisms used in the study were (i) standard strains of bacteria: Staphylococcus aureus NCTC 4163, Escherichia coli ATCC 25922, Pseudomonas aeruginosa NCTC 6749, and Streptococcus […] ATCC 19615, and (ii) fungi: Candida albicans ATCC 10231. The standard strains were obtained from the National Collection of Type Cultures (NCTC, Salisbury, UK) and the American Type Culture Collection (ATCC, Manassas, VA, USA). Bacterial and yeast strains were stored in Microbank cryogenic vials (Pro-Lab Diagnostics, Richmond Hill, ON, Canada) at −70 °C ± 10 °C. The bacteria were cultured aerobically in brain–heart infusion (BHI) broth (OXOID, Basingstoke, UK) at 36 °C ± 1 °C for 20 h. C. albicans cultures were grown in Sabouraud dextrose broth (SDB, Merck, Steinheim, Germany) at 36 °C for 20 h.
The organisms were harvested by centrifugation (3000× g for 15 min) and resuspended in 1.5 mL of 10 mM PBS, pH, 7.0 (Sigma-Aldrich, St. Louis, MO, USA). The cells were then diluted 1/100 in PBS to a final concentration of about 10^7 colony-forming units (CFUs)/mL. Aliquots (100 μL) of a standardized microbial suspension were placed in the wells of microtiter plates, and an equal volume of a solution of the tested compound was added to give final concentrations of 1 × 10^−5 (10 µM) and 1 × 10^−6 M (1 µM) (groups P+). Negative control wells contained the bacterial or yeast suspension and PBS without the photosensitizer (groups P−). All the samples were incubated in the dark for 20 min and irradiated by the LED panel at a distance of 10 mm for a specific period, depending on the experiment (groups L+). To evaluate the antimicrobial activity of the tested compounds, duplicate experimental samples were prepared but not irradiated (groups L−). Viable microorganisms were measured by counting the number of colony-forming units (CFUs) after appropriate serial dilution and culture on tryptic soy agar plates (TSA, OXOID, Basingstoke, UK) or Columbia Blood Agar with Sheep Blood (CAS, OXOID, Basingstoke, UK) for bacteria and Sabouraud dextrose agar (SDA, Merck, Steinheim, Germany) for fungi, following incubation at 36 °C ± 1 °C for 24–72 h. The number of surviving organisms and the log10 reduction in microbial cells for each sample were calculated using a formula available in the literature.
Lamp type—LED λmax~470 nm (LIU470A LED Array Light Source; Thorlabs Inc., Bergkirchen, Germany); irradiance—16.67 mW/cm^2 (measured with PM16-130 Power Meter, Thorlabs Inc., Bergkirchen, Germany, and Optel Opole Sp. z o.o., Opole, Poland).

C. albicans = tested on: C. albicans; design: method as in PMID 22934533; settings: 80 µM curcumin, 37.5 J/cm^2; mouse model of oral candidiasis; cited from earlier work
[2] = tested on: WM266-4 melanoma cell line; design: method as in Siwak et al. 49; settings: after 96 h of incubation; ref Siwak et al. 49; cited from earlier work

| Molecule | Log Red. ([1]; 1 µM, 5 min irradiation 470 nm (5 J/cm^2)) [log] | irradiation time to complete eradication ([1]; 1 µM) [min] | Log Red. ([1]; 1 µM, 10 min irradiation 470 nm) [log] | Log Red. ([1]; 1 µM, 15 min irradiation 470 nm) [log] | Log Red. ([1]; 10 µM, 5 min irradiation 470 nm (5 J/cm^2)) [log] | irradiation time to complete eradication ([1]; 10 µM) [min] | reduction in the survival of C. albicans (C. albicans) [log] | IC50 [2] [µM] |
| --- | --- | --- | --- | --- | --- | --- | --- | --- |
| C[N+]1(CCOc2ccc(C=CC3=CC(C=Cc4ccc(OCC[N+]5(C)CCOCC5)cc4)=[O+][B-](F)(F)O3)cc2)CCOCC1 [Compound 3] | 3.03 | 15 | 4.51 | >4.93 | >4.93 | 5 | – | – |
| Curcumin [reference compound] | – | – | – | – | – | – | 4 | ~7 |
